Assay results published in paper PMC10458236, “QSAR and Chemical Read-Across Analysis of 370 Potential MGMT Inactivators to Identify the Structural Features Influencing Inactivation Potency” (Pharmaceutics, 2023).

Molecular target: T1, human recombinant MGMT (O^6-methylguanine-DNA methyltransferase) (Homo sapiens, UniProt P16455)
T1 construct: recombinant
T1 sequence (P16455 1-207): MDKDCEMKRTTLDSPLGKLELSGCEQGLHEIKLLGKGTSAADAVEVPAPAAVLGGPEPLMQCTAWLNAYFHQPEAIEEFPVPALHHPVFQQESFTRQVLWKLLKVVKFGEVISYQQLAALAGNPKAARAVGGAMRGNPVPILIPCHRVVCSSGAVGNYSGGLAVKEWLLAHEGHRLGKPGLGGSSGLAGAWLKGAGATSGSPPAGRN
Test: [3H]-methylated-DNA MGMT inactivation assay
Assay type: biochemical

IC50 | SMILES
3.02 nM | N#Cc1csc(COc2nc(N)nc3[nH]cnc23)c1 [compound 90]
2.82 nM | CCCOC(=O)n1cc2c(OCc3cc(Br)cs3)nc(N)nc2n1 [compound 411]
